In US11613527B2, “Enzyme inhibitors” (KalVista Pharmaceuticals Limited, priority 2019, dated 2023):

How the values were obtained:
Assay type in all cases: biochemical
Human KLK1 = Human KLK1 (Homo sapiens (Human), UniProt P06870); test: Determination of the IC50 for KLK1 (fluorogenic substrate H-DVal-Leu-Arg-AFC)
Description: Selected compounds were further screened for inhibitory activity against the related enzyme KLK1. The ability of the compounds of formula (I) to inhibit KLK1 may be determined using the following biological assay:
Determination of the IC50 for KLK1
(§1) KLK1 inhibitory activity in vitro was determined using standard published methods (see e.g. Johansen et al., Int. J. Tiss. Reac. 1986, 8, 185; Shori et al., Biochem. Pharmacol., 1992, 43, 1209; Sturzebecher et al., Biol. Chem. Hoppe-Seyler, 1992, 373, 1025). Human KLK1 (Callbiochem) was incubated at 25° C. with the fluorogenic substrate H-DVal-Leu-Arg-AFC and various concentrations of the test compound. Residual enzyme activity (initial rate of reaction) was determined by measuring the change in optical absorbance at 410 nm and the IC50 value for the test compound was determined.

Human plasma kallikrein = Human plasma kallikrein (Homo sapiens (Human), UniProt P03952); test: Determination of the IC50 for plasma kallikrein (fluorogenic substrate H-DPro-Phe-Arg-AFC); settings: class symbols A-D, read-out: IC50 (human PKal)
Description: The ability of the compounds of formula (I) to inhibit plasma kallikrein may be determined using the following biological assay:
Determination of the IC50 for Plasma Kallikrein
as §1, with “Plasma kallikrein” for “KLK1”, “plasma kallikrein (Protogen)” for “KLK1 (Callbiochem)”, “H-DPro-Phe-Arg-AFC” for “H-DVal-Leu-Arg-AFC”

Human FXIa = Human FXIa (Homo sapiens (Human), UniProt P03951); test: Determination of the % inhibition for FXIa (fluorogenic substrate Z-Gly-Pro-Arg-AFC; 40 μM or IC50)
Description: Selected compounds were further screened for inhibitory activity against the related enzyme FXIa. The ability of the compounds of formula (I) to inhibit FXIa may be determined using the following biological assay:
Determination of the % Inhibition for FXIa
FXIa inhibitory activity in vitro was determined using standard published methods (see e.g. Johansen et al., Int. J. Tiss. Reac. 1986, 8, 185; Shori et al., Biochem. Pharmacol., 1992, 43, 1209; Sturzebecher et al., Biol. Chem. Hoppe-Seyler, 1992, 373, 1025). Human FXIa (Enzyme Research Laboratories) was incubated at 25° C. with the fluorogenic substrate Z-Gly-Pro-Arg-AFC and 40 μM of the test compound (or alternatively at various concentrations of the test compound in order to determine IC50). Residual enzyme activity (initial rate of reaction) was determined by measuring the change in optical absorbance at 410 nm and the IC50 value for the test compound was determined.

Chain of Human plasma kallikrein (P03952 391-638): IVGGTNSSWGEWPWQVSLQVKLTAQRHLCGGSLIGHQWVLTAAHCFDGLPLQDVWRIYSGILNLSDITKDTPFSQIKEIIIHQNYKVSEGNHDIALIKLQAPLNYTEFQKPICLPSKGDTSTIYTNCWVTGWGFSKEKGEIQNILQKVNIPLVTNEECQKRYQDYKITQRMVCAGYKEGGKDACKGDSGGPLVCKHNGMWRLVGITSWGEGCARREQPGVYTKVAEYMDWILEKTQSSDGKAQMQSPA
Chain of Human plasma kallikrein (P03952 20-390 partner): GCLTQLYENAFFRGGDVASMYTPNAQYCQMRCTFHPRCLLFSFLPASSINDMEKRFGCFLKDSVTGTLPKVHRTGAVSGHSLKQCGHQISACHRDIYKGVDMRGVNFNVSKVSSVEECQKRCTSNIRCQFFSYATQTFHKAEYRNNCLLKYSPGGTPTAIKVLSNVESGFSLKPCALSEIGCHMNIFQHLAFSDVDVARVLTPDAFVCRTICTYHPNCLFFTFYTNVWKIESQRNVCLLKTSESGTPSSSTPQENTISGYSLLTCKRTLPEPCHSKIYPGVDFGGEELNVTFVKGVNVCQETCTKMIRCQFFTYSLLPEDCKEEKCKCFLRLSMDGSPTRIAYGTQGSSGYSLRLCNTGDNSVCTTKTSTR
Chain of Human KLK1 (P06870 25-262): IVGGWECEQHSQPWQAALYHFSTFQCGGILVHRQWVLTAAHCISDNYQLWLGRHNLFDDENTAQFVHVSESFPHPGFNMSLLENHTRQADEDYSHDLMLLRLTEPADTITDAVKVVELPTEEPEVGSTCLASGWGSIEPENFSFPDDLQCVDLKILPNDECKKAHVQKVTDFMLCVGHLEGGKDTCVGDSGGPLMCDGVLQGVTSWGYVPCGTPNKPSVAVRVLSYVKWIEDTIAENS
Chain of Human FXIa (P03951 388-625): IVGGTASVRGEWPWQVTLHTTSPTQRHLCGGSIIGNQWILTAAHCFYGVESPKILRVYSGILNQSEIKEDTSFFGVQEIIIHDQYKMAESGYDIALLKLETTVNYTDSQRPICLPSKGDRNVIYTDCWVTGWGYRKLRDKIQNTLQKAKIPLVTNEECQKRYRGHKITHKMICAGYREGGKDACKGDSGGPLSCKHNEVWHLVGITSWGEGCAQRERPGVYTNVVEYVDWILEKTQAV
Chain of Human FXIa (P03951 19-387 partner): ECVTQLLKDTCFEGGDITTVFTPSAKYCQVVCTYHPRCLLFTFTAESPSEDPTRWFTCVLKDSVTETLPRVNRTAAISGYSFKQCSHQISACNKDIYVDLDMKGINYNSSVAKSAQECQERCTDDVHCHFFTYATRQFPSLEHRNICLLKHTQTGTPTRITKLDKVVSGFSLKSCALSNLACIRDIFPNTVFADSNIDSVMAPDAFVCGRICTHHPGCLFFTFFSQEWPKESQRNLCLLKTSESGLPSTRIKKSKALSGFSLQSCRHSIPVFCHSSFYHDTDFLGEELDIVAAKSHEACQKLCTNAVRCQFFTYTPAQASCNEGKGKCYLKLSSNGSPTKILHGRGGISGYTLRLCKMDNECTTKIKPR

SMILES | IC50 (Human KLK1) [µM] | IC50 (Human plasma kallikrein) [µM] | IC50 (Human FXIa) [µM]
COc1ccc(-n2cc(C)nn2)c(CNC(=O)c2cnn(Cc3ccc4c(c3)CN(C)CC4)c2)c1F [Example 3, N-{[2-fluoro-3-methoxy-6-(4-methyl-1,2,3-triazol-1-yl)phenyl]methyl}-1-[(2-methyl-3,4-dihydro-1H-isoquinolin-7-yl)methyl]pyrazole-4-carboxamide] | > 40 | < 0.01 | > 40
CCc1ncn(-c2ccc(OC)c(F)c2CNC(=O)c2cn(Cc3ccc4c(c3)CN(C)CC4)nc2COC)n1 [Example 6, N-{[6-(3-ethyl-1,2,4-triazol-1-yl)-2-fluoro-3-methoxyphenyl]methyl}-3-(methoxymethyl)-1-[(2-methyl-3,4-dihydro-1H-isoquinolin-7-yl)methyl]pyrazole-4-carboxamide] | > 40 | < 0.01 | > 40
COCc1nn(Cc2ccc3c(c2)CN(C)CC3)cc1C(=O)NCc1c(-n2cncn2)ccc(OC)c1F [Example 7, N-{[2-fluoro-3-methoxy-6-(1,2,4-triazol-1-yl)phenyl]methyl}-3-(methoxymethyl)-1-[(2-methyl-3,4-dihydro-1H-isoquinolin-7-yl)methyl]pyrazole-4-carboxamide] | > 40 | < 0.01 | > 40
COCc1nn(Cc2ccc3c(c2)CN(C)CC3)cc1C(=O)NCc1c(-n2ccc(C(F)(F)F)n2)ccc(OC)c1F [Example 8, N-({2-fluoro-3-methoxy-6-[3-(trifluoromethyl)pyrazol-1-yl]phenyl}methyl)-3-(methoxymethyl)-1-[(2-methyl-3,4-dihydro-1H-isoquinolin-7-yl)methyl]pyrazole-4-carboxamide] | > 40 | 0.01 to 0.03 | > 40
COCc1nn(Cc2ccc3c(c2)CN(C)CC3)cc1C(=O)NCc1c(-n2ccc(C3CC3)n2)ccc(OC)c1F [Example 9, N-{[6-(3-cyclopropylpyrazol-1-yl)-2-fluoro-3-methoxyphenyl]methyl}-3-(methoxymethyl)-1-[(2-methyl-3,4-dihydro-1H-isoquinolin-7-yl)methyl]pyrazole-4-carboxamide] | > 40 | 0.03 to 0.1 | > 40
COCc1nn(Cc2ccc3c(c2)CN(C)CC3)cc1C(=O)NCc1c(-n2ncnc2C)ccc(OC)c1F [Example 12, N-{[2-fluoro-3-methoxy-6-(5-methyl-1,2,4-triazol-1-yl)phenyl]methyl}-3-(methoxymethyl)-1-[(2-methyl-3,4-dihydro-1H-isoquinolin-7-yl)methyl]pyrazole-4-carboxamide] | > 40 | < 0.01 | > 40
COCc1nn(Cc2ccc3c(c2)CN(C2CC2)CC3)cc1C(=O)NCc1c(-n2cc(C)nn2)ccc(OC)c1F [Example 14, 1-[(2-cyclopropyl-3,4-dihydro-1H-isoquinolin-7-yl)methyl]-N-{[2-fluoro-3-methoxy-6-(4-methyl-1,2,3-triazol-1-yl)phenyl]methyl}-3-(methoxymethyl)pyrazole-4-carboxamide] | > 40 | < 0.01 | 28.1
CCN1CCc2ccc(Cn3cc(C(=O)NCc4c(-n5cc(C)nn5)ccc(OC)c4F)c(COC)n3)cc2C1 [Example 16, 1-[(2-ethyl-3,4-dihydro-1H-isoquinolin-7-yl)methyl]-N-{[2-fluoro-3-methoxy-6-(4-methyl-1,2,3-triazol-1-yl)phenyl]methyl}-3-(methoxymethyl)pyrazole-4-carboxamide] | > 40 | < 0.01 | > 40
COCc1nn(Cc2ccc3c(c2)CN(C(C)C)CC3)cc1C(=O)NCc1c(-n2cc(C)nn2)ccc(OC)c1F [Example 17, N-{[2-fluoro-3-methoxy-6-(4-methyl-1,2,3-triazol-1-yl)phenyl]methyl}-1-[(2-isopropyl-3,4-dihydro-1H-isoquinolin-7-yl)methyl]-3-(methoxymethyl)pyrazole-4-carboxamide] | > 40 | < 0.01 | > 40
COCc1nn(Cc2ccc3c(c2)CN(C2CCC2)CC3)cc1C(=O)NCc1c(-n2cc(C)nn2)ccc(OC)c1F [Example 18, 1-((2-cyclobutyl-1,2,3,4-tetrahydroisoquinolin-7-yl)methyl)-N-(2-fluoro-3-methoxy-6-(4-methyl-1H-1,2,3-triazol-1-yl)benzyl)-3-(methoxymethyl)-1H-pyrazole-4-carboxamide] | > 40 | < 0.01 | > 40
COCc1nn(Cc2ccc3c(c2)CN(C2CC2)CC3)cc1C(=O)NCc1c(-n2cnc(C(F)F)n2)ccc(OC)c1F [Example 19, 1-[(2-cyclopropyl-3,4-dihydro-1H-isoquinolin-7-yl)methyl]-N-({6-[3-(difluoromethyl)-1,2,4-triazol-1-yl]-2-fluoro-3-methoxyphenyl}methyl)-3-(methoxymethyl)pyrazole-4-carboxamide] | > 40 | < 0.01 | > 40
COCc1nn(Cc2ccc3c(c2)CN(C2CC2)CC3)cc1C(=O)NCc1c(-n2cnc(C(F)(F)F)n2)ccc(OC)c1F [Example 20, 1-[(2-cyclopropyl-3,4-dihydro-1H-isoquinolin-7-yl)methyl]-N-({2-fluoro-3-methoxy-6-[3-(trifluoromethyl)-1,2,4-triazol-1-yl]phenyl}methyl)-3-(methoxymethyl)pyrazole-4-carboxamide] | > 40 | 0.01 to 0.03 | > 40
COCc1nn(Cc2ccc3c(c2)CN(C2CC2)CC3)cc1C(=O)NCc1c(-n2ccc(C#N)n2)ccc(OC)c1F [Example 21, N-{[6-(3-cyanopyrazol-1-yl)-2-fluoro-3-methoxyphenyl]methyl}-1-[(2-cyclopropyl-3,4-dihydro-1H-isoquinolin-7-yl)methyl]-3-(methoxymethyl)pyrazole-4-carboxamide] | > 40 | < 0.01 | 36.8
COCc1nn(Cc2ccc3c(c2)CN(C)CC3)cc1C(=O)NCc1c(-n2nc(C)nc2C)ccc(OC)c1F [Example 29, N-{[6-(dimethyl-1,2,4-triazol-1-yl)-2-fluoro-3-methoxyphenyl]methyl}-3-(methoxymethyl)-1-[(2-methyl-3,4-dihydro-1H-isoquinolin-7-yl)methyl]pyrazole-4-carboxamide] | > 40 | < 0.01 | > 40
COc1ccc(-n2cc(C)nn2)c(CNC(=O)c2cn(Cc3ccc4c(c3)CN(C)CC4)nc2C(F)F)c1F [Example 33, 3-(difluoromethyl)-N-{[2-fluoro-3-methoxy-6-(4-methyl-1,2,3-triazol-1-yl)phenyl]methyl}-1-[(2-methyl-3,4-dihydro-1H-isoquinolin-7-yl)methyl]pyrazole-4-carboxamide] |  | < 0.01 | 
COCc1nn(Cc2ccc3c(c2)C(C)(C)NCC3)cc1C(=O)NCc1c(-n2cc(C)nn2)ccc(OC)c1F [Example 128, 1-[(1,1-dimethyl-3,4-dihydro-2H-isoquinolin-7-yl)methyl]-N-{[2-fluoro-3-methoxy-6-(4-methyl-1,2,3-triazol-1-yl)phenyl]methyl}-3-(methoxymethyl)pyrazole-4-carboxamide] |  | 0.03 to 0.1 | 
COCc1nn(Cc2ccc3c(c2)C(C)(C)N(C)CC3)cc1C(=O)NCc1c(-n2cc(C)nn2)ccc(OC)c1F [Example 129, N-{[2-fluoro-3-methoxy-6-(4-methyl-1,2,3-triazol-1-yl)phenyl]methyl}-3-(methoxymethyl)-1-[(1,1,2-trimethyl-3,4-dihydroisoquinolin-7-yl)methyl]pyrazole-4-carboxamide] |  | 0.01 to 0.03 | 
COCc1nn(Cc2ccc3c(c2)CNCC3(C)C)cc1C(=O)NCc1c(-n2cc(C)nn2)ccc(OC)c1F [Example 130, 1-[(4,4-dimethyl-2,3-dihydro-1H-isoquinolin-7-yl)methyl]-N-{[2-fluoro-3-methoxy-6-(4-methyl-1,2,3-triazol-1-yl)phenyl]methyl}-3-(methoxymethyl)pyrazole-4-carboxamide] |  | 0.01 to 0.03 | 
COc1ccc(-n2cc(C)nn2)c(CNC(=O)c2cn(Cc3ccc4c(n3)CN(C)CC4)nc2C(F)(F)F)c1F [Example 131, N-{[2-fluoro-3-methoxy-6-(4-methyl-1H-1,2,3-triazol-1-yl)phenyl]methyl}-1-[(7-methyl-5,6,7,8-tetrahydro-1,7-naphthyridin-2-yl)methyl]-3-(trifluoromethyl)-1H-pyrazole-4-carboxamide] |  | 0.01 to 0.03 | 
